Laboratory results as given in paper PMC10645073, “Interaction of gallium, indium and vanadyl diacetylcurcumin complexes with lysozyme: mechanistic aspects and evaluation of antiamyloidogenic activity” (Royal Society Open Science, 2023).

What was measured:
[1] = target: T1, hen egg white lysozyme (HEWL) (Gallus gallus, UniProt P00698); experiment: Förster resonance energy transfer (FRET) binding distance, HEWL donor / metal complex acceptor
T1 construct: whose 129 amino acid residues are linked together by four disulfide bridges to form a single polypeptide chain; purchased Sigma-Aldrich L6876; host or cells: hen egg white (natural source, per the protein's name)
Excerpt: Förster resonance energy transfer (FRET) is a sensitive fluorescence-based approach that acts as a spectroscopic ruler to determine the binding distances within 1–10 nm between interacting molecules. Owing to the good overlap between the emission fluorescence spectrum of HEWL, as donor molecule, and the absorption spectra of three metal complexes of diacetylcurcumin, as acceptor molecules (electronic supplementary material, figure S4), the FRET method was used to obtain distance-dependent information of the donor-acceptor pairs. According to Förster's non-radiative energy transfer theory, the value of energy transfer efficiency, E, can be measured using the following equation:3.5 E=1−F/F0=R06/R06+r^6, where R0 and r represent the critical energy transfer distance and distance between donor and acceptor, respectively. The R0 parameter, the distance for 50% energy transfer, can be also calculated by the following equation:3.6 R06=8.79 × 10^−25[K^2n^−4ϕJ(λ)],
where K^2 is the relative orientation of the donor and acceptor (equal to 2/3 for a random orientation), n denotes the average refractive index of the medium (equal to 1.33), and φ represents the fluorescence quantum yield of the donor (equal to 0.15). […] Therefore, it can be concluded that a non-radiative energy transfer process contributes to the fluorescence quenching of HEWL by the metal complexes of diacetylcurcumin. […]

[2] = target: T1, hen egg white lysozyme (HEWL); experiment: Synchronous fluorescence spectroscopy of HEWL; assay type: binding; conditions: Δλ = 60 nm
Method: To obtain synchronous fluorescence spectra, simultaneous scanning of excitation and emission monochromators was performed in such a way as to maintain a constant wavelength interval between them. The changes in the molecular microenvironment of tyrosine and tryptophan residues of HEWL were monitored by fixing the wavelength interval (Δλ = λem − λex) individually at 15 and 60 nm, respectively. The concentrations of HEWL and three metal complexes of diacetylcurcumin were the same as those mentioned for the intrinsic fluorescence spectroscopy.
To investigate the effect of the metal complexes of diacetylcurcumin on the conformation of tyrosine and tryptophan residues of HEWL, synchronous fluorescence spectra of HEWL were recorded alone and in the presence of the metal complexes (electronic supplementary material, figure S5). By fixing the Δλ value, i.e. the difference between excitation and emission wavelengths, at 15 and 60 nm, synchronous fluorescence spectroscopy provides useful information on the microenvironmental changes of tyrosine and tryptophan residues of proteins, respectively. As shown in the electronic supplementary material, figure S5, all three metal complexes of diacetylcurcumin strongly quench the emission fluorescence of HEWL at both 15 and 60 nm. […] At Δλ = 15 nm, no shift in the emission maximum of HEWL is observed, whereas at Δλ = 60 nm, a 2 nm blue shift is observed in the emission spectrum of tryptophan residues of the protein after the interaction with the metal complexes of diacetylcurcumin except for the VO(DAC)2 complex. […] Overall, it can be concluded that the formation of HEWL/metal complex bioconjugates is associated with the binding of three metal complexes of diacetylcurcumin to both tyrosine and tryptophan residues in which the conformational changes can occur only around the tryptophan residues of the protein. It should be noted that the reduction in the polarity of the microregions surrounding tryptophan residues of the protein has already been observed by the intrinsic emission fluorescence titrations (see §3.1.1.).

mouse lymphoma cells = system: mouse lymphoma cells; set-up: method as in PMID 16171869; conditions: read-out: IC50 cytotoxicity; cited from earlier work

SMILES | binding distance r between donor and acceptor [1] | energy transfer value (E) [1] | microenvironment of tryptophan residues of HEWL [2] | IC50 (mouse lymphoma cells)
COc1cc(C=CC(=O)C=C([O-])C=Cc2ccc(OC(C)=O)c(OC)c2)ccc1OC(C)=O.COc1cc(C=CC(=O)C=C([O-])C=Cc2ccc(OC(C)=O)c(OC)c2)ccc1OC(C)=O.COc1cc(C=CC(=O)C=C([O-])C=Cc2ccc(OC(C)=O)c(OC)c2)ccc1OC(C)=O.[In+3] [In(DAC)3, indium diacetylcurcumin] | least value of the binding distance | 18% | more hydrophobic | 20 to 25 µM
COc1cc(/C=C/C(=O)C=C([O-])/C=C/c2ccc(OC(C)=O)c(OC)c2)ccc1OC(C)=O.COc1cc(/C=C/C(=O)C=C([O-])/C=C/c2ccc(OC(C)=O)c(OC)c2)ccc1OC(C)=O.[O]=[V+2] [VO(DAC)2, vanadyl diacetylcurcumin] |  |  | remains unaffected | 7 to 10 µM
